Test results from paper PMC10274570, “Preclinical characterization of WB737, a potent and selective STAT3 inhibitor, in natural killer/T‐cell lymphoma” (MedComm, 2023).

Tests used:
[1] = target: T1, signal transducer and activator of transcription 3 (STAT3) (Homo sapiens, UniProt P40763); assay: microscale thermophoresis with labeled purified His-STAT3 […]-722 (reference inhibitor); format: binding
T1 construct: His-STAT3 127-722

[2] = target: T1, signal transducer and activator of transcription 3 (STAT3); assay: microscale thermophoresis with labeled purified His-STAT3 […]-722; format: binding

T1 sequence (P40763 127-722): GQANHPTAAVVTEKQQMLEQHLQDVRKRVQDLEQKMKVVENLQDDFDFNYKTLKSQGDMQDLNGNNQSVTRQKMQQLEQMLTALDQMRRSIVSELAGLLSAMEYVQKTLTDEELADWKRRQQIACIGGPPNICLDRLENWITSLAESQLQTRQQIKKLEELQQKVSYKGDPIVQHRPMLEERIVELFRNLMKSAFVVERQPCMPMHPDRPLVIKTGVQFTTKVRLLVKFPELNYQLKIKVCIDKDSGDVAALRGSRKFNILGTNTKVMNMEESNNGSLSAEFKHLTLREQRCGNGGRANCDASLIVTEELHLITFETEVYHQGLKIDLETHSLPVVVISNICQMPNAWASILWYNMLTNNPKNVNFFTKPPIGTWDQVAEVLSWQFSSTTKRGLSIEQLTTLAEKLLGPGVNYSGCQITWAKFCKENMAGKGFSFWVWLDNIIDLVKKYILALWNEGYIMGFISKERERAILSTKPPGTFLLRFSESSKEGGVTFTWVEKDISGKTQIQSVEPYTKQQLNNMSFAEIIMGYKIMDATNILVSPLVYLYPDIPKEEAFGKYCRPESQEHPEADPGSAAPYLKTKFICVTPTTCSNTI

Kd [2]	Compound	Kd [1]
	O=[N+]([O-])c1ccc2c(c1)S(=O)(=O)C=C2 [Stattic]	6.51 ± 0.82 µM
0.00134 ± 0.00019 µM	WB737	
